This is an account of results in ChEMBL document CHEMBL5604062, “ASAP - ZIKV NS2B-NS3 protease fluorescence dose response” (2024).

As usually defined, the pIC50 is −log10 of the IC50, conventionally taken in molar units. High values mean a low IC50, low ones a high IC50.

In assay [1] the target is T1, Nonstructural protein 3 (Zika virus, UniProt A0A024AXB9). Description: Functional biochemical assay to identify treatments for viral infectious disease that targets Zika NS2B-NS3 protease. Utilizing a direct enzyme activity measurement method, reading the fluorescence intensity is used to characterize the relative potency of inhibitors as IC50. Synthetic construct has been made based on Zika virus (strain PRVABC59) by Centre for Medicines Discovery, University of Oxford, and the assay has been performed by Enamine biological services, Bienta Ltd.The protocol is publicly available: dx.doi.org/10.17504/protocols.io.36wgqn273gk5/v1.

Assay [2] has as its target T1, Nonstructural protein 3. Description: Functional biochemical assay to identify treatments for viral infectious disease that targets Zika NS2B-NS3 protease. Utilizing a direct enzyme activity measurement method, reading the fluorescence intensity is used to characterize the relative potency of inhibitors as IC50. Set-up: species or system PRVABC59.

pIC50: −log10 of the molar value. Several values for one entry are separate records, joined by “and”; a condition that tells them apart may be missing. Equal values may be shown once.

T1 sequence (A0A024AXB9 whole entry): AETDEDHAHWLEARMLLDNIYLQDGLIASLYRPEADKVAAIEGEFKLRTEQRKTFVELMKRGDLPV

Consider `Cc1c(C(=O)Nc2cccc(CS(C)(=O)=O)c2)cc(C2CC2)n1C`, for which the pIC50 at Nonstructural protein 3 [1] and at Nonstructural protein 3 [2] was under 4.60 in each case.

Take `O=C1Cc2c(cccc2C(=O)Nc2ccnn2Cc2ccncc2)N1`: the pIC50 against Nonstructural protein 3 [1] and against Nonstructural protein 3 [2] was under 4.60 throughout.

On to `NC(=O)COc1ccc(Br)cc1[C@H](Nc1ccc2c(c1)CNC2)C(=O)NCC(F)F`, for which the pIC50 at Nonstructural protein 3 [1] was 6.71 and 6.63; against Nonstructural protein 3 [2], 7.16 and 7.26.

Regarding `CC(C)CNC(=O)c1cc(Cl)cc2[nH]c(-c3cccc(C#N)c3)nc12`, the negative-log IC50 (pIC50) at Nonstructural protein 3 [1] and against Nonstructural protein 3 [2] was under 4.60 each time.

`CC(=O)N(c1ccc2c(c1)CNC2)[C@]1(c2cc(Cl)cc(C3CC3)c2)CN(C)C1=O`: the pIC50 was under 4.60 on Nonstructural protein 3 [1] and 4.64 against Nonstructural protein 3 [2].

For `CO[C@H]1Cc2ccc(NC(=O)c3cc(C4CC4)n(C)c3C)cc2C1`, the pIC50 at Nonstructural protein 3 [1] and on Nonstructural protein 3 [2] was under 4.60 throughout.

`O=C1Cc2c(cccc2C(=O)Nc2nnc3n2CCCS3)N1`: the pIC50 against Nonstructural protein 3 [1] and at Nonstructural protein 3 [2] was under 4.60 throughout.

In the case of `O=C(O)COc1ccc(Cl)cc1[C@H](Nc1ccc2c(c1)CNC2)C(=O)NCC(F)F`, the pIC50 at Nonstructural protein 3 [1] was 6.59; at Nonstructural protein 3 [2] it was 6.74.

As for `NC(=O)c1cn(C2CCCC2)nc1NC(=O)c1cccc2c1CC(=O)N2`, the pIC50 at Nonstructural protein 3 [1] and against Nonstructural protein 3 [2] was under 4.60 throughout.

Regarding `O=C1Cc2c(cccc2C(=O)Nc2cnn(Cc3ccncc3)c2)N1`, the pIC50 against Nonstructural protein 3 [1] and against Nonstructural protein 3 [2] was under 4.60 each time.

Regarding `C=C(C)c1ccc(Cl)cc1[C@H](Nc1ccc2c(c1)CNC2)C(=O)NCC(F)F`, the pIC50 is 6.49 and 6.48 against Nonstructural protein 3 [1]; 6.53 at Nonstructural protein 3 [2].

On to `N#CCOc1ccc(Br)cc1[C@H](Nc1ccc2c(c1)CNC2)C(=O)NCC(F)F`, for which the negative-log IC50 (pIC50) against Nonstructural protein 3 [1] is 6.87 and 6.84; against Nonstructural protein 3 [2], 7.24 and 7.38.

With `Clc1cc(CNc2ccc3c(n2)CNC3)c2cn[nH]c2c1`, the negative logarithm of the IC50 (pIC50) at Nonstructural protein 3 [1] and on Nonstructural protein 3 [2] was under 4.60 throughout.

In the case of `Cc1c(C(=O)Nc2cccc(-c3nc(C4CC4)no3)c2)cc(C2CC2)n1C`, the pIC50 against Nonstructural protein 3 [1] and at Nonstructural protein 3 [2] was under 4.60 in each case.

Turning to `N#Cc1cccc(-c2nc3c(C(=O)Nc4cccc(F)c4)cc(Cl)cc3[nH]2)c1`, the pIC50 at Nonstructural protein 3 [1] and against Nonstructural protein 3 [2] was under 4.60 throughout.

For `O=C(NCC(F)F)[C@H](Nc1cc2c(cc1Br)CNC2)c1cc(Cl)cc(C2CC2)c1`, the pIC50 at Nonstructural protein 3 [1] is 6.97 and 7.04; against Nonstructural protein 3 [2], 7.72 and 7.89.

As to `CNC(=O)c1cc(Br)cc([C@H](Nc2ccc3c(c2)CNC3)C(=O)NCC(F)F)c1`, the pIC50 at Nonstructural protein 3 [1] was 6.98 and 7.06; against Nonstructural protein 3 [2], 7.72 and > 7.92.

Take `O=C(Nc1ccc2c(c1)CN[C@H]2CC1CC1)c1cc(F)cc2[nH]ncc12`: the pIC50 on Nonstructural protein 3 [1] was 6.50 and 6.55; against Nonstructural protein 3 [2], 6.72.

As to `CC1(C)NCc2cc(NC(=O)c3cc(F)cc4[nH]ncc34)ccc21`, the negative logarithm of the IC50 (pIC50) was 4.74 and < 4.60 against Nonstructural protein 3 [1]; 5.04 at Nonstructural protein 3 [2].

As to `CC(C)(C)OC(=O)N1Cc2ccc(N[C@H](C(=O)O)c3cc(Cl)cc4[nH]ncc34)cc2C1`, the pIC50 on Nonstructural protein 3 [1] and at Nonstructural protein 3 [2] was under 4.60 in each case.

Turning to `Cc1c(C(=O)Nc2cccc(-c3ccoc3)c2)cc(C2CC2)n1C`, the pIC50 at Nonstructural protein 3 [1] and at Nonstructural protein 3 [2] was under 4.60 in each case.

`C[C@H]1NCc2ccc(NC(=O)c3cc(Cl)cc4[nH]ncc34)cc21`: the pIC50 at Nonstructural protein 3 [1] was 5.45 and 5.40; against Nonstructural protein 3 [2] it was 5.82.

For the compound `CC(=O)N[C@]1(C)C(=O)Nc2cc(F)cc(C(=O)Nc3ccc4c(c3)CNC4)c21`, the negative logarithm of the IC50 (pIC50) on Nonstructural protein 3 [1] is 5.43; at Nonstructural protein 3 [2], 5.62.

In the case of `O=C1Cc2c(cccc2C(=O)Nc2cc(Br)c3ncnn3c2)N1`, the pIC50 at Nonstructural protein 3 [1] and on Nonstructural protein 3 [2] was under 4.60 each time.

With `C[C@]1(S(C)(=O)=O)C(=O)Nc2cc(F)cc(C(=O)Nc3ccc4c(c3)CNC4)c21`, the negative logarithm of the IC50 (pIC50) is 5.11 and 5.04 on Nonstructural protein 3 [1]; 5.40 against Nonstructural protein 3 [2].

Consider `NCCCn1c(C2CC2)cc(C(=O)Nc2cc([C@H]3CCOC3)ccn2)c1C1CC1`, for which the pIC50 against Nonstructural protein 3 [1] and against Nonstructural protein 3 [2] was under 4.60 throughout.

For `Cc1c(C(=O)Nc2ccc3c(c2F)CCN(C)C3=O)cc(C2CC2)n1C`, the pIC50 on Nonstructural protein 3 [1] and on Nonstructural protein 3 [2] was under 4.60 each time.

`Cc1c(C(=O)Nc2cccc(Cn3cccn3)c2)cc(C2CC2)n1C`: the negative logarithm of the IC50 (pIC50) against Nonstructural protein 3 [1] and at Nonstructural protein 3 [2] was under 4.60 in each case.

With `O=C1Cc2c(cccc2C(=O)Nc2cccc(-c3cn[nH]c3)c2)N1`, the pIC50 on Nonstructural protein 3 [1] and at Nonstructural protein 3 [2] was under 4.60 each time.

For `O=C1Cc2c(cccc2C(=O)Nc2cccc(Cc3nn[nH]n3)c2)N1`, the pIC50 against Nonstructural protein 3 [1] and against Nonstructural protein 3 [2] was under 4.60 throughout.

With `O=C(Nc1ccc2c(c1)CN[C@H]2C1CC1)c1cc(F)cc2[nH]ncc12`, the pIC50 against Nonstructural protein 3 [1] is 6.59 and 6.26; against Nonstructural protein 3 [2], 6.67.

Consider `Cc1c(C(=O)Nc2ccc3c(c2)C(=O)NC3)cc(C2CC2)n1C`, for which the negative logarithm of the IC50 (pIC50) at Nonstructural protein 3 [1] and on Nonstructural protein 3 [2] was under 4.60 in each case.

As to `O=C(NCC(F)F)[C@H](Nc1ccc2c(c1)CNC2)c1cc(Br)cc2cn[nH]c12`, the pIC50 against Nonstructural protein 3 [1] is 6.85 and 6.90; against Nonstructural protein 3 [2], 7.54 and 7.70.

On to `N#Cc1cccc(-c2nc3c(C(=O)Nc4ccccn4)cc(Cl)cc3[nH]2)c1`, for which the pIC50 on Nonstructural protein 3 [1] and at Nonstructural protein 3 [2] was under 4.60 throughout.

As for `Nc1ccncc1-c1cc(F)cc(C(=O)Nc2ccc3c(c2)CNC3)c1`, the pIC50 on Nonstructural protein 3 [1] is 6.84; on Nonstructural protein 3 [2], 7.27 and 7.42.

Take `C[C@H]1C(=O)Nc2ccc(C(=O)Nc3ccc4c(c3)CNC4)cc21`: the pIC50 is 5.38 and 5.48 against Nonstructural protein 3 [1]; 4.97 against Nonstructural protein 3 [2].

`O=C1C[C@H](c2cccc(-c3cc(F)cc(C(=O)Nc4ccc5c(c4)CNC5)c3)c2)N1`: the pIC50 is 6.89 and 6.88 at Nonstructural protein 3 [1]; 7.11 and 7.18 against Nonstructural protein 3 [2].

Turning to `CC(=O)N(c1ccc2c(c1)CNC2)[C@]1(c2cc(Cl)cc(C3CC3)c2)CCCN(C)C1=O`, the pIC50 against Nonstructural protein 3 [1] and at Nonstructural protein 3 [2] was under 4.60 each time.

`O=C1Cc2c(cccc2C(=O)Nc2nc([C@H]3CCCOC3)cs2)N1`: the pIC50 on Nonstructural protein 3 [1] and against Nonstructural protein 3 [2] was under 4.60 throughout.

Consider `Cc1c(C(=O)Nc2cccc(CN3CCCC3=O)c2)cc(C2CC2)n1C`, for which the negative logarithm of the IC50 (pIC50) against Nonstructural protein 3 [1] and against Nonstructural protein 3 [2] was under 4.60 throughout.

On to `CN(C)C(=O)C[C@H]1NCc2cc(NC(=O)c3cc(F)cc4[nH]ncc34)ccc21`, for which the negative logarithm of the IC50 (pIC50) against Nonstructural protein 3 [1] was 6.30 and 5.88; at Nonstructural protein 3 [2] it was 6.31.

For the compound `NCCc1cccc(NC(=O)c2cccc3c2CC(=O)N3)c1`, the negative-log IC50 (pIC50) on Nonstructural protein 3 [1] is 6.27; on Nonstructural protein 3 [2] it was 6.48.

Take `C[C@H]1NCc2cc(NC(=O)c3cc(F)cc4[nH]ncc34)ccc21`: the pIC50 against Nonstructural protein 3 [1] was 6.19 and 5.84; at Nonstructural protein 3 [2], 6.31.

As for `O=C1Cc2c(cccc2C(=O)Nc2ccc(N3CCOC3=O)nc2)N1`, the pIC50 against Nonstructural protein 3 [1] and against Nonstructural protein 3 [2] was under 4.60 each time.

With `O=C(NCC(F)F)[C@H](Nc1ccc2c(c1)CNC2)c1cc(Br)ccc1Oc1ccc(Cl)c(Cl)c1`, the pIC50 was 6.70 and 6.62 against Nonstructural protein 3 [1]; 6.67 against Nonstructural protein 3 [2].

Take `Cc1cc(NC(=O)c2cc(C3CC3)n(C)c2C)ccc1OC1CCOCC1`: the pIC50 at Nonstructural protein 3 [1] and at Nonstructural protein 3 [2] was under 4.60 each time.

In the case of `O=C(Nc1ccc2c(c1)CN[C@H]2C(=O)O)c1cc(F)cc2[nH]ncc12`, the pIC50 against Nonstructural protein 3 [1] is 5.50 and 5.48; at Nonstructural protein 3 [2], 5.88.

On to `Cc1c(C(=O)Nc2ccc3c(c2)CN(C)C3=O)cc(C2CC2)n1C`, for which the pIC50 against Nonstructural protein 3 [1] and against Nonstructural protein 3 [2] was under 4.60 throughout.

Take `C[C@H](NC(=O)c1cccc2c1CC(=O)N2)c1nnc2n1CCCC2`: the negative logarithm of the IC50 (pIC50) at Nonstructural protein 3 [1] and on Nonstructural protein 3 [2] was under 4.60 each time.

With `CC(C)n1nncc1-c1cc(F)cc(C(=O)Nc2ccc3c(c2)CNC3)c1`, the pIC50 was 5.46 at Nonstructural protein 3 [1] and 5.73 against Nonstructural protein 3 [2].
